# Columns and labels:
# Assay type in all cases: cell-based, human
# HeLa cells = assay: Anti-clonogenic activity on HeLa cells (plating efficiency assay / live cell imaging); details: for Anti-clonal effect / end point clonal assay, clonal inhibition alone: 50 μM; for Anti-clonal effect: isolated, FIG. 1; for clonal inhibition in combination with Apigenin: 50 μM combined with Apigenin 25 μM; for clonal inhibition in combination with Apigenin / end point clonal assay, clonal inhibition alone: FIG. 9-11; for end point clonal assay, clonal inhibition alone: administered alone; for clonal inhibition in combination with Chrysin: 50 μM combined with Chrysin 25 μM; for clonal inhibition in combination with Chrysin / synergy with Galangine, Apigenin and Chrysin: FIG. 10-11
# Description: Panel C and D: diagrammatic topographical maps of treatments and growth conditions on plates A and B respectively.
# Panel A. Hela cells were challenged with serial twofold dilutions of 50 μM Luteolin (in columns 1-6) and 100 μM Galangin (columns 7-10). Hela control untreated cells in columns 11-12.
# (§1) A total of 6 cell lines, outlined in Table 3, were used for this study. The cell lines were obtained from Research Centres of cell biology in Italy, United Kingdom and Germany. This research raised no ethical concern being based on entirely in vitro experiments using no patients' derived information or material. In compliance with National and International ethical rules, no informed consent is needed.
# (§2) HeLa cells are the oldest continuous cell lines and were originally derived from a HPV18 positive metastatic cervical carcinoma (Scherer W F et al 1953). Siha cells are an epithelioid like cell line derived from a HPV16-positive invasive cervical squamous carcinoma (Friedel F et al 1970). Ca-Ski cells are a line harboring multiple copy of transcriptionally active HPV16 genomes (Baker C C et al 1984). Both Hela and Siha were a kind gift of prof MS Campo, The Beatson Institute for Cancer Research, Glasgow, Scotland. These two cell lines because of their versatility and ease of use were used for most of experiments reported. Ca-Ski cells were obtained through the courtesy of prof. Matthias Durst, at the Deutsch Krebsforschungzentrum—Heidelberg, FRG. These cells used together with Siha provide a model for the genetic instability and variability of cervical cancers. HK-168 is an immortalized, non-tumorigenic, continuous cell line derived from human skin keratinocytes in vitro transformed with whole HPV16 genome (De Marco F et al 2007). This cell line is reputed to recapitulate le biological features of transformed dysplastic cells and was used in preliminary experiments to set the experimental dosages and conditions. The ME-180 cells are a cell line harboring a few, transcriptionally active, copies of HPV68 and provide an in vitro model for dysplastic/neoplastic lesions induced by HPV with Intermediate oncogenic Risk (Yee C C et al 1985). The HaCaT cells, derived from a solar skin lesion by Petra Boukamp et al (1988) are here used as an in vitro equivalent of Ultra-Violet induced pre-neoplastic epithelial cells to rule out possible direct toxic effects of polyphenols. Both HaCaT and ME-180, were kindly donated by Prof. Matthias Durst. Hela, Siha, Ca-Ski, ME-180 and HaCaT were all grown in high glucose DMEM supplemented with 10% fetal calf serum (FCS). The HK-168 cells, which retained the ability to terminally differentiate under high Ca^2+ and FCS concentrations, were grown in K-SFM, a chemically defined medium supplemented with human EGF and bovine pituitary extract (ThermoFisher Scientific, Life Technologies, Monza—MI). Each cell line was sub-cultured twice a week at the appropriate split ratio according to the specific proliferative index. In no case antibiotics or antimycotics were added to the culture media. For the present study, all cell lines were retrieved from an in-house cell archive facility.
# The anti-clonogenic activity was evaluated both by the current standard qualitative plating efficiency assay and by quantitative live cell imaging analysis ([…] S3 Live Cell Analysis Imaging System—Sartorius Welwyn Garden City, Hertfordshire, UK).
# HPV transformed cells [1] = assay: Anti-clonal effect on HPV transformed cells (cell line not stated); details: for IC50: Homo sapiens, minimal concentration reducing 50% of CFU of treated versus control, read-out: CID50 (50% clonal inhibitory dose), isolated polyphenols; for IC50 / IRR (inhibitory relative rate) / anticlonogenic / anti-clonal effect: isolated compound; for IRR (inhibitory relative rate): reverse ratio of CID50 to the reference CID50 of Quercetin (=1); for anticlonogenic / anti-clonal effect / clonal inhibition in combination: summary statement
# Description: The inhibitory relative rate (IRR) (fourth column) provides an efficacy ranking of molecules.
# The anti-clonogenic activity was evaluated both by the current standard qualitative plating efficiency assay and by quantitative live cell imaging analysis (INCUCYTE S3 Live Cell Analysis Imaging System—Sartorius Welwyn Garden City, Hertfordshire, UK). For qualitative plating efficiency assay cells were seeded at ‘clonal’ density (i.e., 0.5 cell/mm^2) either in medium containing the testing molecules or with plain medium and incubated without any further manipulation. After 9-14 days, according to the cell line specific proliferative index, the cultures were decanted and stained with 0.2% CV/methanol for 5 min at room temperature. All conditions were tested in triplicates in a 6-well culture plate. The anti-clonogenic activity of the treatments was evaluated using the colony forming units (CFU) of treated versus control cultures. The minimal concentration which could reduce 50% of the CFU of treated versus control culture was defined as colony-forming Inhibitory concentration (CID50). For quantitative evaluation cells were seeded in 96-well microplates at the above density and condition and allowed to grow the subsequent 8-day incubation in the INCUCYTE S3 Imaging System. Images were acquired at 12-hours intervals and colony formation and percentage of growth area covered (confluency) were then monitored through automated image analysis. The analysis parameters were as follows: segmentation adjustment=0.4; hole fill <5,000 μm^2; adjusted pixel=−2.
# Siha cells [2] = assay: Antiproliferative effect on Siha cells, live cell analysis; details: Siha 1000 cells/well
# Description: FIG. 2: live cell analysis of RNPs antiproliferative effect. Siha cells were seeded at 1000 cells/well in a 96 well plate and allowed to adhere overnight. The plate was then washed twice with PBS and replenished with 100 microliter/well fresh medium plus 50 μM of each compound. Images were taken every 12 hours; Growth curves were drawn plotting the percentage of confluence versus time. […] In fact, their growth curves outline a single spindle completely overlapping and masking the one of control untreated cells. Conversely, a distinct anti-proliferative effect is evident in panel B- where the growth curves of RNP 9 Kaempferol (solid squares), RNP 12 Luteolin (solid diamonds), RNP 16 Apigenin (solid circles) and control untreated cells (solid stars) are depicted. […] Each point represents the mean of six independent replicas. Bar width represents the Standard Deviation (SD). Consistent results were also obtained by HeLa and ME-180 cells
# (§3) For antiproliferative effect cells were seeded in 96-well microplates at 1000 cells/per well (i.e.: 30 cell/mm^2), a density allowing exponential growth rate for the subsequent 8-day incubation. After overnight adhesion cell monolayers were washed and replenished with fresh media with different testing molecules, plain medium served as cell growth control.
# (§4) Cell growth was then monitored by automated INCUCTE S3 imaging Systems. Images were acquired at 12-hours intervals. The analysis parameters were as follows: segmentation adjustment=0.9; hole fill <7,000 μm^2; adjusted pixel=0.
# Data for growth curves, anti-clonal and Antiproliferative assays were obtained from at least three independent experiments. Each data point of quantitative anti-proliferative or anti-clonal experiments represents the mean (±SD) of eight independent replicates. Data were analyzed and plotted using Prism 6.0 software (GraphPad Software, San Diego, CA).
# Siha cells [3] = assay: Anti-clonogenic activity on SiHa cells (plating efficiency assay / live cell imaging); details: for end-point anti-clonal effect versus control untreated cells: 25.0 μM, FIG. 6-8
# Description: In this experiment Kaempferol and Apigenin were administered to Siha cells at decremental concentrations, either in combination or alone, as shown in the topographical map (in panel C). […] Histograms in Panel B depict the number of colonies per well as evaluated by visual inspection and count.
# The Histograms in Panel B depict the number of colonies per well as evaluated by visual inspection and count. • In Panel C a topographical map of plate treatments. Each condition was assayed in duplicate.
# Kaempferol, Galangin, Luteolin and their combination were administered to SiHa cells at the concentrations of 25 μM each and of 12,5/12,5/6,25 μM for their combination. Treatments were allowed to stay on cells either for 2 or 4/8/16/24 hours. After that, treatments were washed out, cells washed two times with PBS, replenished with fresh medium and the anti-clonal effect was then monitored by live cell image analysis.
# as §1, §2
# HPV transformed cells [4] = assay: Antiproliferative effect on HPV transformed cells (cell line not stated); details: summary statement, isolated compound
# Description: as §3, §4
# [5] = 50 μM combined with Galangin 25 μM, HeLa, FIG. 11
# [6] = combined with Galangin, Chrysin or Apigenin
IC50 (HPV transformed cells [1]) [µM],SMILES,Anti-clonal effect (HeLa cells; HeLa),anticlonogenic / anti-clonal effect (HPV transformed cells [1]),clonal inhibition in combination with Apigenin (HeLa cells; HeLa),"end point clonal assay, clonal inhibition alone (HeLa cells; HeLa)",further results
–,O=C1C[C@@H](c2ccccc2)Oc2cc(O)cc(O)c21 [Pinocembrin],devoid of any significant anticlonogenic effect,–,–,–,–
25,O=c1cc(-c2ccccc2)oc2cc(O)cc(O)c12 [Chrysin],almost complete suppression of clonal activity,"fair anti-clonal effect, although milder",–,–,IRR (inhibitory relative rate) (HPV transformed cells [1]): 2
–,COc1cc(C(=O)O)ccc1O [Vanillic acid],devoid of any significant anticlonogenic effect,devoid of any direct activity,almost complete clonal inhibition,neither of them induced any effect,"clonal inhibition in combination with Galangin (HeLa cells; 50 μM combined with Galangin 12.5 μM, HeLa, FIG. 9-10): almost complete clonal inhibition; synergistic effect with Galangine and Apigenin (HeLa cells; in association, HeLa, FIG. 9): synergistic effect; clonal inhibition in combination (HPV transformed cells [1]; combined with Galangin or Quercetin): a certain grade of clonal inhibition; anticlonogenic / anti-clonal effect (HPV transformed cells [1]; listed as Vanillic): devoid of. any direct anticlonogenic activity"
25,O=c1cc(-c2ccc(O)cc2)oc2cc(O)cc(O)c12 [Apigenin],almost complete suppression of clonal activity,"fair anti-clonal effect, although milder",–,–,"antiproliferative effect (Siha cells [2]; 50 μM, FIG. 2): distinct, although milder effect; inhibition at 50 µM (Siha cells [2]; Homo sapiens, FIG. 2, read-out: suppression of proliferation): ~20%; clonal efficiency versus control untreated cells (Siha cells [3]; 12.5 μM, alone, Siha, FIG. 4): no difference to control untreated cells; end-point anti-clonal effect versus control untreated cells (Siha cells [3]; alone, SiHa): no difference to control untreated cells; IRR (inhibitory relative rate) (HPV transformed cells [1]): 2"
–,O=C(O)c1ccccc1 [Benzoic acid],devoid of any significant anticlonogenic effect,devoid of. any direct anticlonogenic activity,almost complete clonal inhibition,neither of them induced any effect,"clonal inhibition in combination with Chrysin (HeLa cells; HeLa): almost complete clonal inhibition; clonal inhibition in combination with Galangin (HeLa cells; [5]): almost complete clonal inhibition; synergy with Galangine, Apigenin and Chrysin (HeLa cells; in association, HeLa): synergize; clonal inhibition in combination (HPV transformed cells [1]; [6]): a certain grade of clonal inhibition"
25,O=c1c(O)c(-c2ccccc2)oc2cc(O)cc(O)c12 [Galangin],almost complete suppression of clonal activity,sharp anticlonogenic and antiproliferative effect,–,–,"anti-clonal effect at concentrations above CID50 (HeLa cells; higher concentrations than CID50, HeLa, FIG. 3): completely suppressive; end-point anti-clonal effect versus control untreated cells (Siha cells [3]; alone, SiHa): no difference to control untreated cells; inhibition at 25 µM (Siha cells [3]; Homo sapiens, 25 μM, single compound, 24 hours treatment then wash-out, SiHa, FIG. 12, read-out: clonal inhibition): ~50%; IRR (inhibitory relative rate) (HPV transformed cells [1]): 2; antiproliferative effect (HPV transformed cells [4]): sharp anticlonogenic and antiproliferative effect"
–,O=C(O)c1ccc(O)c(O)c1 [Protocatechuic acid],devoid of any significant anticlonogenic effect,devoid of. any direct anticlonogenic activity,almost complete clonal inhibition,neither of them induced any effect,"clonal inhibition in combination with Chrysin (HeLa cells; HeLa): almost complete clonal inhibition; clonal inhibition in combination with Galangin (HeLa cells; [5]): almost complete clonal inhibition; synergy with Galangine, Apigenin and Chrysin (HeLa cells; in association, HeLa): synergize; clonal inhibition in combination (HPV transformed cells [1]; [6]): a certain grade of clonal inhibition"
–,O=C1c2c(O)cc(O)cc2O[C@H](c2ccccc2)[C@H]1O [Pinobanksin],No effect,–,–,–,–
–,O=C(/C=C/c1ccc(O)c(O)c1)O[C@@H]1C[C@](O)(C(=O)O)C[C@@H](O)[C@H]1O [Chlorogenic acid],devoid of any significant anticlonogenic effect,devoid of. any direct anticlonogenic activity,almost complete clonal inhibition,neither of them induced any effect,"clonal inhibition in combination with Chrysin (HeLa cells; HeLa): almost complete clonal inhibition; clonal inhibition in combination with Galangin (HeLa cells; [5]): almost complete clonal inhibition; synergy with Galangine, Apigenin and Chrysin (HeLa cells; in association, HeLa): synergize; clonal inhibition in combination (HPV transformed cells [1]; [6]): a certain grade of clonal inhibition"
–,C[C@@H]1O[C@@H](OC[C@H]2O[C@@H](Oc3c(-c4ccc(O)c(O)c4)oc4cc(O)cc(O)c4c3=O)[C@H](O)[C@@H](O)[C@@H]2O)[C@H](O)[C@H](O)[C@H]1O [Rutin],No effect,–,–,–,–

SMILES,IC50 (HPV transformed cells [1]) [µM],Anti-clonal effect (HeLa cells; HeLa),anticlonogenic / anti-clonal effect (HPV transformed cells [1]),clonal inhibition in combination with Apigenin (HeLa cells; HeLa),"end point clonal assay, clonal inhibition alone (HeLa cells; HeLa)",further results
O=c1c(O)c(-c2ccc(O)c(O)c2)oc2cc(O)cc(O)c12 [Quercetin],50,almost complete suppression of clonal activity,"fair anti-clonal effect, although milder",–,–,–
